System: sebocytes
Experiment: In Vitro Sebocyte Lipogenesis Assay (14-C acetate incorporation into lipids of cultured sebocytes)
Format: cell-based
Settings: cultured human sebocytes; for % decrease in lipid syn.: 24 h, relative to vehicle control
Method: In Vitro Sebocyte Lipogenesis Assay
Human sebaceous glands were isolated from the nose of a person and cultured using submerged tissue culture techniques (Bajor et al, J. Invest. Dermatol., 102:1994, p. 564). These sebocytes accumulate intracellular lipid droplets characteristic of mature human sebum.
Harvested and passaged sebocytes were added to each well of a 96 well tissue culture plate and incubated at 37° C. in-the presence of 7.5% CO2 for 10 days. The growth medium was changed three times per week. On the day of experimentation, the growth medium was removed and the sebocytes washed three times with phosphate buffered saline (PBS). Fresh phenol-free sebocyte growth media in 0.2 ml amount containing various concentrations of active agent speculated to inhibit lipogenesis was added to each well. Triplicate wells were utilized for each sample. […] The cultures were incubated at 37° C./7.5% CO2 for 24 hours. Radioactive label was prepared by adding 100 μl (micro-liters) of 14-C labelled acetic acid (Amersham, sodium salt, specific activity of 56 mCi/mmol) to 10 ml of 50 mM sodium acetate buffer. Then 50 μl was added to each well containing the sebocytes and active agents. The cultures were returned to the incubator for 4 hours. Thereafter the treatments and label were removed and the sebocytes rinsed three times with fresh PBS. Samples containing the 14-C label were extracted and the label counted using a Beckman scintillation counter. Triplicates were performed for each sample.
For each 96 well tissue culture plate, 20 samples could be analyzed. Of these, 1 sample was reserved for media, 1 sample for DMSO or ethanol, and 1 sample for phenol red leaving 17 remaining samples.

Compound | % decrease in lipid syn. (40 uM) [%] | activity in reducing lipid synthesis in sebocytes (in words) | % decrease in lipid syn. (20 uM) [%] | % decrease in lipid syn. (100 uM) [%] | % decrease in lipid syn. (10 uM) [%] | further results
O=C(OC1Cc2c(O)cc(O)cc2OC1c1cc(O)c(O)c(O)c1)c1cc(O)c(O)c(O)c1 (single isomer, unassigned; (-)) [EGCG, (−)-epigallocatechin gallate] | 13.4 | significant activity | – | – | – | % decrease in lipid syn. (8 uM): 8.9%; % decrease in lipid syn. (200 uM): 29.5%; % decrease in lipid syn. (1000 uM): 90%
C=C/C(C)=C/[C@@]1(C)SC(=O)C(C)=C1O [Thiolactomycin] | – | not to inhibit | – | – | – | –
Oc1cc(Cl)ccc1Oc1ccc(Cl)cc1Cl [Triclosan] | 90 | significant activity | 48.8 | 97.2 | – | –
C=C1CCOC1=O [α-methylene-γ-butyrolactone] | – | significant activity | 13.2 | 53.3 | 1.3 | % decrease in lipid syn. (500 uM): 100%
C=C1CCC(=O)O1 [γ-methylene γ-butyrolactone] | – | ineffective | – | – | – | –
[2R,3S]-2,3-epoxy4-oxo-7,10-trans, trans-dodecanoic acid amide [Cerulenin] | 99.0 | significant activity | – | – | 96.5 | % decrease in lipid syn. (1.6 uM): 13.6%; % decrease in lipid syn. (5 uM): 52.0%; % decrease in lipid syn. (concentration not printed (between 40 uM and 10 uM in the list)): 96.5%

Reference: US20050053631A1, “Method of decreasing sebum production” (Unilever Home & Personal Care USA, Division of Conopco, Inc., priority 2003, published 2005)
